Data published in the Deep4Chem optical property database.

Experiment: solvent given as SMILES

`Nc1ccccc1` showed an emission maximum (in C1CCCCC1) of 323.42 nm.
In the case of `Cc1cc(-c2nnc(-c3ccccc3)o2)ccc1-n1c2ccccc2c2ccccc21`, the emission maximum (in CCO) was 445 nm and the emission maximum (in Cc1ccccc1) was 382 nm.
`CC1(C)c2ccccc2-c2cc3c(cc21)c1ccccc1n3-c1ccc2ccccc2n1` gave an emission maximum (in ClCCl) of 438 nm.
In the case of `CCCCCCCC(=O)Oc1ccc2c3cccc4c(OC(=O)CCCCCCC)ccc(c5cccc1c52)c43`, the emission maximum (in C1CCOC1) was 454.01 nm, the emission maximum (in Cc1ccccc1) was 456.99 nm and the emission maximum (in ClC(Cl)(Cl)Cl) was 456.99 nm. It also gave an emission maximum (in ClC(Cl)Cl) of 456.01 nm, an emission maximum (in ClCCl) of 455 nm and an emission maximum (in c1ccncc1) of 459.02 nm.
`COCCOCCOc1ccc(OCCOCCOC)c(C=O)c1` showed an emission maximum (in CC(C)(C)O) of 444 nm, an emission maximum (in CC(C)CO) of 453 nm and an emission maximum (in CC(C)O) of 454 nm. For the same compound, the emission maximum (in CCCCO) was 456 nm, the emission maximum (in CCCO) was 460 nm and the emission maximum (in CCO) was 461 nm. The emission maximum (in CN(C)C=O) was 424 nm, the emission maximum (in CNC=O) was 458 nm and the emission maximum (in CO) was 468 nm. The emission maximum (in NC=O) was 463 nm and the emission maximum (in O) was 485 nm.
Compound `c1cc2ccc3ccc(-n4c5ccccc5c5ccccc54)c4ccc(c1)c2c34` has an emission maximum (in CCCCCC) of 407 nm, an emission maximum (in CCO) of 398 nm and an emission maximum (in CCOC(C)=O) of 398 nm. The emission maximum (in ClCCl) was 399 nm.
In the case of `CCCN1/C(=C\c2c(-c3ccc(N(C)C)cc3)c(=O)c2=O)C=Cc2ccccc21`, the emission maximum (in C1CCCCC1) was 428 nm, the emission maximum (in Cc1ccccc1) was 435 nm and the emission maximum (in ClCCl) was 585 nm.
`Fc1c(F)c(-n2c3ccccc3c3ccccc32)c(F)c(F)c1/C=C/C(=C(c1ccccc1)c1ccccc1)c1ccccc1` showed an emission maximum (in Cc1ccccc1) of 445 nm.
Compound `CC(C)(C)Nc1c(-c2ccc(-c3cc(=O)cc(-c4ccccc4)o3)cc2)nc2ccccn12` has an emission maximum (in ClCCl) of 515 nm.
In the case of `COc1ccc(-c2ccc(/C=C/c3ccncn3)cc2)cc1`, the emission maximum (in ClCCl) was 447 nm.
In the case of `c1ccc(-c2cc(-c3ccccc3)cc(-c3ccccc3)c2)cc1`, the emission maximum (in C1COCCO1) was 354 nm.
With `COc1c2ccccc2c(OC)c2c1c1c(C)ccc(OC)c1n2C` the emission maximum (in C1CCCCC1) was 427 nm, the emission maximum (in CC#N) was 445 nm and the emission maximum (in CO) was 440 nm. The emission maximum (in ClCCl) was 443 nm.
`CC(=O)c1ccc(C#Cc2ccc(-c3cc(N(C)C)c4ccccc4c3)cc2)cc1` showed an emission maximum (in ClCCl) of 458 nm.
`CC(C)(C)c1ccc2c(c1)[nH]c1c3[nH]c4cc(C(C)(C)C)ccc4c3c3nsnc3c21` gave an emission maximum (in CN(C)C=O) of 507 nm, an emission maximum (in Cc1ccccc1) of 472 nm and an emission maximum (in ClCCl) of 502 nm.
Compound `COc1ccc(C2=C/C(=C\c3ccc([N+](=O)[O-])cc3)C(=O)N2CC(C)C)cc1` has an emission maximum (in C1COCCO1) of 616 nm.
Compound `COc1ccc(/C=C/c2cc(/C=C/c3ccc(OC)cc3)nc(/C=C/c3ccc(C(F)(F)F)cc3)n2)cc1` has an emission maximum (in C1CCOC1) of 436 nm, an emission maximum (in CC#N) of 463 nm and an emission maximum (in CC(C)=O) of 452 nm. The emission maximum (in CCCCCCC) was 398 nm, the emission maximum (in CS(C)=O) was 475 nm and the emission maximum (in Cc1ccccc1) was 411 nm. For the same compound, the emission maximum (in ClCCl) was 441 nm.
`CCOC(=O)CSc1nc2c(c(C#N)c1C#N)CCCC2` gave an emission maximum (in c1ccccc1) of 407 nm.
Work on `F[B-]1(F)n2c(-c3ccccc3)cc(-c3ccccc3)c2C=C2C(c3ccccc3)=CC(c3ccccc3)=[N+]21` yielded an emission maximum (in C1CCOC1) of 601 nm.
In the case of `N#Cc1cc(N2c3ccccc3Oc3ccccc32)c(N2c3ccccc3Oc3ccccc32)cc1C#N`, the emission maximum (in c1ccc2c(c1)c1ccccc1n2-c1ccc(-c2ccc(-n3c4ccccc4c4ccccc43)cc2)cc1) was 612 nm.
`CCCCCCCCOc1ccc2c3c(c4ccc(OCCCCCCCC)cc4c2c1)C(C)(C)c1ccccc1-3` showed an emission maximum (in C1CCCCC1) of 390 nm.
For `c1ccc(-c2ccc(-c3nc(-n4c5ccccc5c5ccc6c7ccccc7n(-c7ccccc7)c6c54)nc(-n4c5ccccc5c5ccc6c7ccccc7n(-c7ccccc7)c6c54)n3)cc2)cc1`, the emission maximum (in Cc1ccccc1) was 495 nm and the emission maximum (in O=P(c1ccccc1)(c1ccccc1)c1ccccc1Oc1ccccc1P(=O)(c1ccccc1)c1ccccc1) was 492 nm.
Compound `Cc1ccc(-c2nc(-c3ccccc3O)[nH]c2-c2ccc(C)cc2)cc1` has an emission maximum (in CO) of 430 nm.
`C[Si](C)(c1ccc2cc3ccccc3cc2c1)[Si](C)(C)c1ccc2cc3ccccc3cc2c1` gave an emission maximum (in C1CCCCC1) of 415 nm and an emission maximum (in CC#N) of 413 nm.
With `COc1ccc2c3ccc(OC)cc3n(-c3ccc(-c4nnc(-c5c(C(C)C)cc(C(C)C)cc5C(C)C)o4)cc3)c2c1` the emission maximum (in Cc1ccccc1) was 437 nm.
